Experimental data from patent US20250059182A1, “SOS1 INHIBITORS” (Mirati Therapeutics, Inc., priority 2021, published 2025).
Structures can show the parent of a compound that is named as a salt.

These compounds were tested against T1, recombinant human SOS1 polypeptide (amino acids 560-1049) (Homo sapiens, UniProt Q07889) (assay: HTRF displacement assay: inhibition of labeled tracer binding to SOS1). Details: Table A1, Morrison equation for competitive binding.
T1 construct: corresponding to amino acids 560-1049, expressed in E. Coli; made in house; host or cells: E. coli
T1 sequence (Q07889 560-1049): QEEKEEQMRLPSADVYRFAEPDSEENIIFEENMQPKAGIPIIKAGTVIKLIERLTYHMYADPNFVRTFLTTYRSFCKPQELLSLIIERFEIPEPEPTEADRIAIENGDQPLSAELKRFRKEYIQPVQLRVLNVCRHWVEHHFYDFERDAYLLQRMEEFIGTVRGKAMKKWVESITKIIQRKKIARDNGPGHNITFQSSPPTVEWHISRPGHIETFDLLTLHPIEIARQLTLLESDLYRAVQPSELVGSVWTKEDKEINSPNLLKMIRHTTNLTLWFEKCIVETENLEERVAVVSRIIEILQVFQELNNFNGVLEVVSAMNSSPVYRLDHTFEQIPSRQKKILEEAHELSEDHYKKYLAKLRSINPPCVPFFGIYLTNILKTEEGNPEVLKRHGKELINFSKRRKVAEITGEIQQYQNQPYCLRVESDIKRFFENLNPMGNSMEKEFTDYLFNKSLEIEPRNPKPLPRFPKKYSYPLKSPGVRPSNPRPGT
Experimental: The ability of a compound of Formula (I) to bind to SOS1 was measured using a HTRF displacement assay. […] After a 1-hour incubation at room temperature, the HTRF signal was measured using Clairostar plate reader (BMG Labtech) according to the manufacturer's instructions. Excitation filter EX-TR was used, and emission 1 was detected at 650-610 nm and emission 2 detected at 620-610 nm. The HTRF ratio was calculated using the formula: [emission 1/emission 2]*10000.
Background signals were calculated from well with a 10 μM inhibitor, known to inhibit 100% at that concentration. The background subtracted signals were converted to % binding relative to DMSO controls. Data were analyzed using XLFIT software (IDBS) using a Morrison equation for competitive binding and Ki's were generated compound of Formula (I).

Going from Cc1c(C#N)cccc1[C@@H](C)Nc1nnc(CO)c2cnc(N3CCOCC3)cc12 [Example P-201, (R)-3-(1-((4-(hydroxymethyl)-7-morpholinopyrido[3,4-d]pyridazin-1-yl)amino)ethyl)-2-methylbenzonitrile formic acid salt] to Cc1c(C#N)cccc1[C@@H](C)Nc1nnc(C=O)c2cnc(N3CCOCC3)cc12 [Example P-202, (R)-3-(1-((4-formyl-7-morpholinopyrido[3,4-d]pyridazin-1-yl)amino)ethyl)-2-methylbenzonitrile], the Ki rises from 6.36 nM to 49.7 nM (7.8-fold). The first binds more tightly here.

First: Cc1c(C#N)cccc1[C@@H](C)Nc1nnc(C)c2cnc(N3CCOC(=O)C3)cc12 [Example P-203, (R)-2-methyl-3-(1-((4-methyl-7-(2-oxomorpholino)pyrido[3,4-d]pyridazin-1-yl)amino)ethyl)benzonitrile]
Second: Cc1c(C#N)cccc1[C@@H](C)Nc1nnc(C)c2cnc(N3CCOCC3=O)cc12 [Example P-204, (R)-2-methyl-3-(1-((4-methyl-7-(3-oxomorpholino)pyrido[3,4-d]pyridazin-1-yl)amino)ethyl)benzonitrile]
The Ki of the first is 5.3-fold lower: 26.1 nM for the first, 139 nM for the second. The first binds more tightly here.

Compared with Cc1c(C#N)cccc1[C@@H](C)Nc1nnc(C)c2cnc(OCCOCCN3C(=O)CCC(N4C(=O)c5cccc(O)c5C4=O)C3=O)cc12 (stereo partly drawn) [Example P-207, 3-((1R)-1-((7-(2-(2-(3-(4-hydroxy-1,3-dioxoisoindolin-2-yl)-2,6-dioxopiperidin-1-yl)ethoxy)ethoxy)-4-methylpyrido[3,4-d]pyridazin-1-yl)amino)ethyl)-2-methylbenzonitrile], Cc1c(C#N)cccc1[C@@H](C)Nc1nnc(C)c2cnc(OCCOCCOc3cccc4c3C(=O)N(C3CCC(=O)NC3=O)C4=O)cc12 (stereo partly drawn) [Example P-208, 3-((1R)-1-((7-(2-(2-((2-(2,6-dioxopiperidin-3-yl)-1,3-dioxoisoindolin-4-yl)oxy)ethoxy)ethoxy)-4-methylpyrido[3,4-d]pyridazin-1-yl)amino)ethyl)-2-methylbenzonitrile] is 2-fold lower in Ki: 865 nM for the first, 427 nM for the second.

With Cc1c(C#N)cccc1[C@@H](C)Nc1nnc(C)c2cnc(OCCNC(=O)CCOC34CC5CC(CC(C5)C3)C4)cc12 [Example P-209, 3-(((3s,5s, 7s)-adamantan-1-yl)oxy)-N-(2-((1-(((R)-1-(3-cyano-2-methylphenyl)ethyl)amino)-4-methylpyrido[3,4-d]pyridazin-7-yl)oxy)ethyl)propanamide] the Ki was 542 nM.

Same assay, conditions: Table A, Morrison equation for competitive binding

Compared with Cc1nnc(N[C@H](C)c2cccc(C(F)F)c2F)c2cc(N3CCN(C)CC3)c(C#N)cc12 [Example 6-22, (R)-1-((1-(3-(difluoromethyl)-2-fluorophenyl)ethyl)amino)-4-methyl-7-(4-methylpiperazin-1-yl)phthalazine-6-carbonitrile], Cc1c(C#N)cccc1[C@@H](C)Nc1nnc(C)c2cc(Br)c(N3CCN(C)CC3)cc12 [Example 8-1, (R)-3-(1-((6-bromo-4-methyl-7-(4-methylpiperazin-1-yl)phthalazin-1-yl)amino)ethyl)-2-methylbenzonitrile] is 1.6-fold higher in Ki: 1.49 nM for the first, 2.4 nM for the second. The first binds more tightly here.
